In patent US10407463B2, “Method for producing alpha-form crystal of reduced glutathione, and method for storing said crystal” (KYOWA HAKKO BIO CO., LTD., priority 2015, dated 2019):
Marks after values point to notes of the source that are not given here. One block for each compound: values may come before it. Peptide text beside a SMILES is read from it.

Assays:
[1] = Suppression of transition to β-form crystal by habit modifier in α-form crystal slurry (Example 1); assay type: physicochemical; details: 0.45 g added to 9 g α-form crystals in 30 mL water; 25° C., 24 hr; microscopic observation
Protocol: α-Form crystals of reduced glutathione (9 g) and water (30 mL) were mixed in a glass bottle. […] The glass bottle was shaken in a tray dryer set to 25° C. for 24 hr.

[2] = not told
Text: The crystals precipitated during stirring are observed under a microscope, and it is judged whether the crystals are all α-form crystals or development of β-form crystal or transition to β-form crystal has occurred. Since the shape of α-form crystal, which is a large columnar crystal, is markedly different from that of β-form crystal, which is a small needle crystal, they can easily be distinguished by microscopic observation. […] The permeability can be expressed by permeability (T %) 430 nm=100×10^−A (A=Abs: 430 nm, 1 cm). When β-form crystal having low solubility is present, the permeability of the solution is lowered since the crystals left undissolved are detected as turbidity. Since the development of β-form crystal causes crystallization and a lower concentration of reduced glutathione in the solution in the slurry than that of a solution containing α-form crystal alone, the kind of the coexisting crystals can also be distinguished by measuring the concentration of reduced glutathione in the mother liquor from which the coexisting crystals have been removed. The concentration of reduced glutathione in the mother liquor is measured by removing the coexisting crystals by filtration and the like, diluting same with mobile phase to a given concentration, maintaining with stirring for a sufficient time, and measuring the concentration under the following HPLC conditions.
After 3 hr, the crystals (each 1 g) were dissolved in water (10 mL) at 25° C., the permeability at 430 nm was measured, and the turbidity was confirmed to determine the presence or absence of transition to β-form crystal.

[3] = Amount of habit modifier needed to suppress β-form crystal development in aqueous reduced glutathione solution (Example 4); assay type: physicochemical; details: 10° C.
Text: The results of the elapsed time and changes in the concentration of reduced glutathione due to the presence or absence of a habit modifier are shown in Table 3.

[4] = Concentration crystallization of reduced glutathione with habit modifier, production method (1) (Example 5); assay type: physicochemical; details: 2.5 g added to 50 g reduced glutathione; concentrate cooled to 25° C., stirred 24 hr; microscopic observation
Protocol: (§1) Reduced glutathione (50 g) and water (500 mL) were added to a 1 L beaker. […] The prepared solution (filtrate) was concentrated by an evaporator such that the concentration of reduced glutathione was not less than the saturation solubility of α-form crystal to perform concentration crystallization of reduced glutathione.

[5] = Concentration crystallization of reduced glutathione with 10 wt % habit modifier, production method (2) (Example 6); assay type: physicochemical; details: 10 wt % added; concentrate cooled to 25° C., stirred 24 hr; microscopic observation
Protocol: as §1

[6] = at 10° C., in water
Text: The crystal of reduced glutathione includes two kinds of crystal polymorphs of α-form crystal and β-form crystal (non-patent document 1). […] Therefore, the β-form crystal having low solubility is associated with problems that it is difficult to process as a raw material and cannot be handled with ease.

transition of α-form crystal to β-form crystal [1]: suppression of the transition
permeability (%) [2]: 99%
SMILES: C[C@H](N)C(=O)N[C@@H](CS)C(=O)O [AlaCys, L-alanyl-L-cysteine] (H-Ala-Cys-OH)

transition of α-form crystal to β-form crystal [1]: suppression of the transition
permeability (%) [2]: 100%
development of β-form crystal ([3]; 0.01 wt %-1 wt % added, 15 hr): suppressed development of β-form crystal
concentration (g/L) of reduced glutathione ([3]; amount added 0.01%, elapsed time 0 h): 94.2* g/L
concentration (g/L) of reduced glutathione ([3]; amount added 0.01%, elapsed time 15 h): 89.2* g/L
concentration (g/L) of reduced glutathione ([3]; amount added 0.1%, elapsed time 0 h): 94.2* g/L
concentration (g/L) of reduced glutathione ([3]; amount added 0.1%, elapsed time 15 h): 91.2* g/L
concentration (g/L) of reduced glutathione ([3]; amount added 1.0%, elapsed time 0 h): 94.2* g/L
concentration (g/L) of reduced glutathione ([3]; amount added 1.0%, elapsed time 15 h): 92.6* g/L
crystal form produced [4]: produced α-form crystal alone
crystal form produced [5]: produced α-form crystal alone
SMILES: C[C@H](N)C(=O)O [L-Ala, L-alanine]

transition of α-form crystal to β-form crystal [1]: suppression of the transition
permeability (%) [2]: 100%
crystal form produced [4]: produced α-form crystal alone
crystal form produced [5]: produced α-form crystal alone
SMILES: N[C@@H](CS)C(=O)O [L-Cys, L-cysteine]

permeability (%) [2]: 95%
SMILES: Cl.N[C@@H](Cc1c[nH]cn1)C(=O)O [L-His, L-histidine hydrochloride, reference compound]

Continued, compound first:

SMILES: O=C(O)[C@H]1CCCN1 [D-Pro, D-proline]
transition of α-form crystal to β-form crystal [1]: suppression of the transition

SMILES: N[C@@H](Cc1ccccc1)C(=O)O [L-Phe, L-phenylalanine]
transition of α-form crystal to β-form crystal [1]: suppression of the transition
permeability (%) [2]: 100%

SMILES: N[C@@H](Cc1c[nH]c2ccccc12)C(=O)O [L-Trp, L-tryptophan]
transition of α-form crystal to β-form crystal [1]: suppression of the transition
permeability (%) [2]: 99%

SMILES: N[C@@H](CCC(=O)N[C@@H](CS)C(=O)NCC(=O)O)C(=O)O [α-form crystal, reduced glutathione]
saturated solubility [6]: 89 mg/mL

SMILES: N[C@@H](CCC(=O)N[C@@H](CS)C(=O)NCC(=O)O)C(=O)O [β-form crystal, reduced glutathione]
saturated solubility [6]: 30 mg/mL
